Source: ChEMBL document CHEMBL3885881, “DrugMatrix”

Species: Rattus norvegicus
Assay: DrugMatrix - Regimen: Daily Repeat
Assay type: toxicity, organism-based, Sprague-Dawley
Design: regimen Daily Repeat, gender Male, age 6-8 weeks
Details: in vivo, po, route oral GAVAGE, vehicle .5 % CMC; for BASOPHIL / EOSINOPHIL / ERYTHROCYTE COUNT / HEMATOCRIT / HEMOGLOBIN / LEUKOCYTE COUNT / LYMPHOCYTE / MEAN CORPUSCULAR HEMOGLOBIN / MEAN CORPUSCULAR HEMOGLOBIN CONCENTRATION / MEAN CORPUSCULAR VOLUME / MONOCYTE / NEUTROPHIL / PLATELET COUNT: tissue Blood; for ALANINE AMINOTRANSFERASE / ALBUMIN / ALKALINE PHOSPHATASE / ASPARTATE AMINOTRANSFERASE / BLOOD UREA NITROGEN / CARBON DIOXIDE / CHLORIDE / CHOLESTEROL / CREATINE PHOSPHOKINASE / CREATININE / GLUCOSE / LACTATE DEHYDROGENASE / LIPASE / PHOSPHORUS / POTASSIUM / SODIUM / TOTAL BILIRUBIN / TOTAL PROTEIN / URIC ACID: tissue Plasma
[1] = 0 mg/kg, 72 h, dose level Control, time 3 day
[2] = 0 mg/kg, 120 h, dose level Control, time 5 day
[3] = 0 mg/kg, […], dose level Control, time 14 day
[4] = 200 mg/kg, 72 h, dose level High, time 3 day
[5] = 200 mg/kg, 120 h, dose level High, time 5 day

In the case of `Nc1cccc(Cl)c1` [3-CHLOROANILINE], the BASOPHIL [1] is reported as 0.62%, the EOSINOPHIL [1] is reported as 0.52% and the “ERYTHROCYTE COUNT” value [1] is reported as 6.33 x10E6/uL. The HEMATOCRIT [1] was 41.88%, the HEMOGLOBIN [1] was 13.52 G/DL and the “LEUKOCYTE COUNT” value [1] was 11.39 x10E3/uL. For the same compound, the LYMPHOCYTE [1] was 86.18%, the “MEAN CORPUSCULAR HEMOGLOBIN” value [1] was 21.35 pg and the “MEAN CORPUSCULAR HEMOGLOBIN CONCENTRATION” value [1] was 32.23 G/DL. The “MEAN CORPUSCULAR VOLUME” value [1] was 66.25 fL, the MONOCYTE [1] was 1.93% and the NEUTROPHIL [1] was 9.1%. The “PLATELET COUNT” value [1] was 1204.5 x10E3/uL, the “ALANINE AMINOTRANSFERASE” value [1] was 43 u/L and the ALBUMIN [1] was 4.08 G/DL. For the same compound, the “ALKALINE PHOSPHATASE” value [1] was 426.33 u/L, the “ASPARTATE AMINOTRANSFERASE” value [1] was 72.5 u/L and the “BLOOD UREA NITROGEN” value [1] was 16.67 mg/dL. For the same compound, the “CARBON DIOXIDE” value [1] was 28.33 mmol/L, the CHLORIDE [1] was 103.5 MEQ/L and the CHOLESTEROL [1] was 78.83 mg/dL. The “CREATINE PHOSPHOKINASE” value [1] was 325.67 u/L, the CREATININE [1] was 0.48 mg/dL and the GLUCOSE [1] was 171.67 mg/dL. The “LACTATE DEHYDROGENASE” value [1] was 107.33 u/L, the LIPASE [1] was 11.83 u/L and the PHOSPHORUS [1] was 12.55 mg/dL. For the same compound, the POTASSIUM [1] was 6.57 MEQ/L, the SODIUM [1] was 145.67 MEQ/L and the “TOTAL BILIRUBIN” value [1] was 0.42 mg/dL. For the same compound, the “TOTAL PROTEIN” value [1] was 6.1 G/DL, the “URIC ACID” value [1] was 1.57 mg/dL and the BASOPHIL [2] was 0.48%. The EOSINOPHIL [2] was 0.67%, the “ERYTHROCYTE COUNT” value [2] was 6.69 x10E6/uL and the HEMATOCRIT [2] was 44.17%. The HEMOGLOBIN [2] was 13.78 G/DL, the “LEUKOCYTE COUNT” value [2] was 7.86 x10E3/uL and the LYMPHOCYTE [2] was 85.9%. For the same compound, the “MEAN CORPUSCULAR HEMOGLOBIN” value [2] was 20.6 pg, the “MEAN CORPUSCULAR HEMOGLOBIN CONCENTRATION” value [2] was 31.25 G/DL and the “MEAN CORPUSCULAR VOLUME” value [2] was 65.9 fL. For the same compound, the MONOCYTE [2] was 3.27%, the NEUTROPHIL [2] was 8.67% and the “PLATELET COUNT” value [2] was 1182.33 x10E3/uL. For the same compound, the “ALANINE AMINOTRANSFERASE” value [2] was 37.5 u/L, the ALBUMIN [2] was 4 G/DL and the “ALKALINE PHOSPHATASE” value [2] was 348.17 u/L. The “ASPARTATE AMINOTRANSFERASE” value [2] was 71.67 u/L, the “BLOOD UREA NITROGEN” value [2] was 13 mg/dL and the “CARBON DIOXIDE” value [2] was 27 mmol/L. For the same compound, the CHLORIDE [2] was 104.67 MEQ/L, the CHOLESTEROL [2] was 73.33 mg/dL and the “CREATINE PHOSPHOKINASE” value [2] was 211.33 u/L. For the same compound, the CREATININE [2] was 0.23 mg/dL, the GLUCOSE [2] was 155 mg/dL and the “LACTATE DEHYDROGENASE” value [2] was 133.83 u/L. The LIPASE [2] was 11.17 u/L, the PHOSPHORUS [2] was 14.53 mg/dL and the POTASSIUM [2] was 6.65 MEQ/L. For the same compound, the SODIUM [2] was 148.17 MEQ/L, the “TOTAL BILIRUBIN” value [2] was 0.28 mg/dL and the “TOTAL PROTEIN” value [2] was 6.22 G/DL. For the same compound, the “URIC ACID” value [2] was 1.57 mg/dL, the BASOPHIL [3] was 0.97% and the EOSINOPHIL [3] was 0.8%. The “ERYTHROCYTE COUNT” value [3] was 7.02 x10E6/uL, the HEMATOCRIT [3] was 44.43% and the HEMOGLOBIN [3] was 14.58 G/DL. For the same compound, the “LEUKOCYTE COUNT” value [3] was 16.49 x10E3/uL, the LYMPHOCYTE [3] was 79.03% and the “MEAN CORPUSCULAR HEMOGLOBIN” value [3] was 20.85 pg. For the same compound, the “MEAN CORPUSCULAR HEMOGLOBIN CONCENTRATION” value [3] was 32.78 G/DL, the “MEAN CORPUSCULAR VOLUME” value [3] was 63.57 fL and the MONOCYTE [3] was 1.9%. The NEUTROPHIL [3] was 15.18%, the “PLATELET COUNT” value [3] was 1184.33 x10E3/uL and the “ALANINE AMINOTRANSFERASE” value [3] was 43 u/L. For the same compound, the ALBUMIN [3] was 4.25 G/DL, the “ALKALINE PHOSPHATASE” value [3] was 409.67 u/L and the “ASPARTATE AMINOTRANSFERASE” value [3] was 84.17 u/L. For the same compound, the “BLOOD UREA NITROGEN” value [3] was 16 mg/dL, the “CARBON DIOXIDE” value [3] was 35.17 mmol/L and the CHLORIDE [3] was 99.83 MEQ/L. The CHOLESTEROL [3] was 68.67 mg/dL, the “CREATINE PHOSPHOKINASE” value [3] was 384.17 u/L and the CREATININE [3] was 0.43 mg/dL. For the same compound, the GLUCOSE [3] was 160 mg/dL, the “LACTATE DEHYDROGENASE” value [3] was 115.33 u/L and the LIPASE [3] was 17.33 u/L. The PHOSPHORUS [3] was 10.68 mg/dL, the POTASSIUM [3] was 6.48 MEQ/L and the SODIUM [3] was 148.17 MEQ/L. For the same compound, the “TOTAL BILIRUBIN” value [3] was 0.45 mg/dL, the “TOTAL PROTEIN” value [3] was 6.57 G/DL and the “URIC ACID” value [3] was 1.78 mg/dL. The BASOPHIL [4] was 0.8%, the EOSINOPHIL [4] was 0.35% and the “ERYTHROCYTE COUNT” value [4] was 6.14 x10E6/uL. The HEMATOCRIT [4] was 40.2%, the HEMOGLOBIN [4] was 12.45 G/DL and the “LEUKOCYTE COUNT” value [4] was 16.22 x10E3/uL. For the same compound, the LYMPHOCYTE [4] was 78.8%, the “MEAN CORPUSCULAR HEMOGLOBIN” value [4] was 20.3 pg and the “MEAN CORPUSCULAR HEMOGLOBIN CONCENTRATION” value [4] was 31 G/DL. The “MEAN CORPUSCULAR VOLUME” value [4] was 65.45 fL, the MONOCYTE [4] was 2.65% and the NEUTROPHIL [4] was 16.45%. The “PLATELET COUNT” value [4] was 1382 x10E3/uL, the “ALANINE AMINOTRANSFERASE” value [4] was 38.5 u/L and the ALBUMIN [4] was 4.1 G/DL. For the same compound, the “ALKALINE PHOSPHATASE” value [4] was 564 u/L, the “ASPARTATE AMINOTRANSFERASE” value [4] was 78.5 u/L and the “BLOOD UREA NITROGEN” value [4] was 14 mg/dL. For the same compound, the “CARBON DIOXIDE” value [4] was 30.5 mmol/L, the CHLORIDE [4] was 106 MEQ/L and the CHOLESTEROL [4] was 63.5 mg/dL. For the same compound, the “CREATINE PHOSPHOKINASE” value [4] was 161 u/L, the CREATININE [4] was 0.4 mg/dL and the GLUCOSE [4] was 168.5 mg/dL. The “LACTATE DEHYDROGENASE” value [4] was 65.5 u/L, the LIPASE [4] was 14.5 u/L and the PHOSPHORUS [4] was 13.95 mg/dL. For the same compound, the POTASSIUM [4] was 6.9 MEQ/L, the SODIUM [4] was 148 MEQ/L and the “TOTAL BILIRUBIN” value [4] was 0.5 mg/dL. The “TOTAL PROTEIN” value [4] was 6.1 G/DL, the “URIC ACID” value [4] was 1.65 mg/dL and the BASOPHIL [5] was 0.4%. For the same compound, the EOSINOPHIL [5] was 0.7%, the “ERYTHROCYTE COUNT” value [5] was 5.95 x10E6/uL and the HEMATOCRIT [5] was 43%. The HEMOGLOBIN [5] was 13 G/DL, the “LEUKOCYTE COUNT” value [5] was 15.09 x10E3/uL and the LYMPHOCYTE [5] was 67.85%. The “MEAN CORPUSCULAR HEMOGLOBIN” value [5] was 21.85 pg, the “MEAN CORPUSCULAR HEMOGLOBIN CONCENTRATION” value [5] was 30.25 G/DL and the “MEAN CORPUSCULAR VOLUME” value [5] was 72.25 fL. For the same compound, the MONOCYTE [5] was 4.1%, the NEUTROPHIL [5] was 26.4% and the “PLATELET COUNT” value [5] was 1312 x10E3/uL. For the same compound, the “ALANINE AMINOTRANSFERASE” value [5] was 35 u/L, the ALBUMIN [5] was 4.1 G/DL and the “ALKALINE PHOSPHATASE” value [5] was 356 u/L. For the same compound, the “ASPARTATE AMINOTRANSFERASE” value [5] was 72.5 u/L, the “BLOOD UREA NITROGEN” value [5] was 12 mg/dL and the “CARBON DIOXIDE” value [5] was 29.5 mmol/L. For the same compound, the CHLORIDE [5] was 103.5 MEQ/L, the CHOLESTEROL [5] was 69.5 mg/dL and the “CREATINE PHOSPHOKINASE” value [5] was 182 u/L. For the same compound, the CREATININE [5] was 0.25 mg/dL, the GLUCOSE [5] was 150.5 mg/dL and the “LACTATE DEHYDROGENASE” value [5] was 149 u/L. The LIPASE [5] was 9 u/L, the PHOSPHORUS [5] was 13.05 mg/dL and the POTASSIUM [5] was 6.45 MEQ/L. For the same compound, the SODIUM [5] was 148.5 MEQ/L, the “TOTAL BILIRUBIN” value [5] was 0.55 mg/dL and the “TOTAL PROTEIN” value [5] was 6.3 G/DL. The “URIC ACID” value [5] was 1.75 mg/dL.
